Assay results: paper PMC9854712 (Antioxidants, 2023)

Columns and labels:
[1] = test system: MDA-MB-231 cells; assay: MTT cell viability assay, MDA-MB-231; type: cell-based; conditions: for viability at 10 µM: Homo sapiens, MDA-MB-231, 48 h, read-out: Cell growth % at 10 µM, MDA-MB-231
Experimental: (§1) The cell lines were obtained from the American Type Culture Collection (ATCC). Five tumor cell lines (MDA-MB-231, MCF-7, HCT116, HTB-54, and DU-145) and two non-tumorigenic cells (184B5 and BEAS-2B) were grown in RPMI 1640 medium (Gibco), and the HT-29 tumor cell line was grown in McCoy’s medium. Both mediums were supplemented with 10% fetal bovine serum (FBS; Gibco) and 1% antibiotics (10.00 units/mL penicillin and 10.00 μg/mL streptomycin; Gibco). Cells were preserved in tissue culture flasks at 37 °C and 5% CO2. The culture medium was replaced every three days.
(§2) The effect of each compound on cell viability was tested using the MTT assay. […] Selected compounds were then tested at seven different concentrations (0.5–100 μM) in MCF-7, HCT116, HT-29, HTB-54, 184B5 and BEAS-2B cells. Cells were seeded at 10^4 per well onto flat-bottomed 96-well culture plates. They were treated with either DMSO or increasing concentration of the corresponding compound for 48 h. Then, they were incubated with 20 μL of 3-(4,5-dimethylthiazol-2-yl)-2,5-diphenyltetrazolium bromide (MTT) (2 mg /mL stock; Aldrich) for 2,5 h and analyzed for their ability to generate a purple formazan dye. These formazan crystals were dissolved in 50 μL of DMSO. The absorbance was measured at a wavelength of 550 nm and the ratio of viable cells was calculated.
(§3) Results are expressed as cell viability % at 10 μM. Selectivity index were calculated as the ratio of the IC50 values determined for the non-malignant and the tumor cells in breast (IC50 (184B5)/IC50 (MCF-7)) and lung (IC50 (BEAS-2B)/IC50 (HTB-54)) cell lines. Data were obtained from at least three independent experiments performed in triplicates.

[2] = test system: DU-145 cells; assay: MTT cell viability assay, DU-145; type: cell-based; conditions: for viability at 10 µM: Homo sapiens, DU-145, 48 h, read-out: Cell growth % at 10 µM, DU-145
Experimental: as §1, §2, §3

[3] = test system: HTB-54 cells; assay: MTT cell viability assay, HTB-54; type: cell-based; conditions: for viability at 10 µM: read-out: Cell growth % at 10 µM, HTB-54
Experimental: as §1, §2, §3

[4] = test system: MCF-7 cells; assay: MTT cell viability assay, MCF-7; type: cell-based
Experimental: as §1, §2, §3

[5] = biological target: T1, AChE (Rattus norvegicus, UniProt P37136); assay: AChE inhibition by Ellman's method (rat frontal cortex homogenate); type: biochemical; conditions: at 10^−6 M, Ellman's method
T1 construct: from tissue; host or cells: frontal cortex of male Wistar rats (crude homogenate)
T1 sequence (P37136 32-614): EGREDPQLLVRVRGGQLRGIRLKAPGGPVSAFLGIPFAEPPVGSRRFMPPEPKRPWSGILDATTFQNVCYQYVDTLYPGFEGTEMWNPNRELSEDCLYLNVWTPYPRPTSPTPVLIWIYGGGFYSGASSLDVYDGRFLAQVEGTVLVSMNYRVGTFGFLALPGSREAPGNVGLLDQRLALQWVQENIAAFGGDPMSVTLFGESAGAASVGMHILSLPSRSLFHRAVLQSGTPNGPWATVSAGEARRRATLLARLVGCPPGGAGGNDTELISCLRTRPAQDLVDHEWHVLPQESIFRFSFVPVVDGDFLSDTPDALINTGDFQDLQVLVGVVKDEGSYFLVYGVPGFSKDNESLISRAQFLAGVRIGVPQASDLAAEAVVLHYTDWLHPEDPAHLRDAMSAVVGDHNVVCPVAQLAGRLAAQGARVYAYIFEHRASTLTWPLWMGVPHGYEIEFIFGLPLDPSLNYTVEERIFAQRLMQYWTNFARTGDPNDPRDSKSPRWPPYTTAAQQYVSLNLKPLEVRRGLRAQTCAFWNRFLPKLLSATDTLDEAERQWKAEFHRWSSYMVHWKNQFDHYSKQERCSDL
Experimental: Frontal cortex tissue obtained from male Wistar rats was homogenized in 39 volumes of 75 mM sodium phosphate buffer (pH 7.4). A mixture of 260 μL containing the compounds assessed, acetylthiocholine iodide and 5 μL tissue homogenate was incubated for 8 min. The reaction was then terminated by adding 50 μL 3% (w/v) sodium dodecyl sulphate followed by 50 μL 0.2% (w/v) 5,5′-dithio-bis(2-nitrobenzoic) acid to produce the yellow anion of 5-thio-2-nitro-benzoic-acid. The extent of the color production was measured spectrophotometrically at 405 nm using Multiskan Ex (Thermo Electron Corporation). […] Results are expressed as the mean ± SD and each experiment was repeated three times.

[6] = test system: HT-29 cells; assay: MTT cell viability assay, HT-29; type: cell-based; conditions: for viability at 10 µM: HT-29, 10 µM, read-out: Cell growth % at 10 µM, HT-29
Experimental: as §1, §2, §3

[7] = test system: HCT116 cells; assay: MTT cell viability assay, HCT116; type: cell-based; conditions: Homo sapiens, HCT-116, 48 h
Experimental: as §1, §2, §3

[8] = test system: 184B5 cells; assay: MTT cell viability assay, 184B5 (non-tumorigenic); type: cell-based; conditions: Homo sapiens, 48 h, nonmalignant mammary gland
Experimental: as §1, §2, §3

[9] = test system: HTB-54, DU-145, HT-29 and MDA-MB-231 cancer cell lines; assay: cells; type: cell-based; conditions: against the panel of the four cancer cell lines
Experimental: as §1, §2
As a first approach, all the compounds were tested in vitro against lung (HTB-54), prostatic (DU-145), colon (HT-29), and triple-negative breast (MDA-MB-231) cancer cell lines at two concentrations (50 and 10 µM) for 48 h. Then, the MTT colorimetric assay was used to evaluate cell proliferation after the treatment. The data are expressed as the percentage of cell growth ± SD in at least three independent experiments performed in quadruplicates (Table S1).

[10] = test system: BEAS-2B cells; assay: MTT cell viability assay, BEAS-2B (non-tumorigenic); type: cell-based; conditions: Homo sapiens, 48 h, nonmalignant bronchial epithelium
Experimental: as §1, §2, §3

[11] = test system: panel of 60 human tumor cell lines; parameters: method as in PMID 19549304; conditions: same cell line panel; cited from earlier work

| Molecule | viability at 10 µM [1] [%] | viability at 10 µM [2] [%] | viability at 10 µM ([3]; HTB-54, 10 µM, 48 h, MTT) [%] | inhibition at 1 µM [5] [%] | viability at 10 µM ([6]; Homo sapiens, 48 h) [%] | also measured |
| --- | --- | --- | --- | --- | --- | --- |
| C=CC[Se]C(=O)C(C)c1ccc(CC(C)C)cc1 (centres unmarked) [Compound 15a] | 38 ± 5.4 | 19.1 ± 7 | 38 ± 7.1 | 19.3 ± 0.1 | 49 ± 7.2 | IC50 ([3]; HTB-54, MTT, 48 h): 23.5 ± 5.8 µM; SI (lung) ([3]; IC50 (BEAS-2B)/IC50 (HTB-54)): 0.5; IC50 ([4]; Homo sapiens, MCF7, MTT, 48 h): 11.2 ± 0.2 µM; SI (breast) ([4]; IC50 (184B5)/IC50 (MCF-7)): 1.1; IC50 ([6]; Homo sapiens, HT-29, 48 h): 9.2 ± 0.7 µM; IC50 [7]: 10.2 ± 0.1 µM; IC50 [8]: 11.5 ± 1.4 µM; viability at 10 µM [9]: < 55%; IC50 [10]: 11.1 ± 2.6 µM |
| O=c1[nH]cc(F)c(=O)[nH]1 [5-fluorouracil] | – | – | – | – | – | GI50 [11]: 57.5 µM |
| C#CC[Se]C(=O)c1cccnc1Cl [Compound 8b, Se-prop-2-ynyl 2-chloropyridine-3-carboselenoate] | 92.9 ± 16.5 | 77.1 ± 13.9 | 99.4 ± 16.2 | 17.1 ± 10.1 | 87.7 ± 10.1 | – |
| C#CC[Se]C(=O)c1sccc1Cl [Compound 10b, Se-prop-2-ynyl 3-chlorothiophene-2-carboselenoate] | 62.5 ± 7.7 | 66.6 ± 8.7 | 81.2 ± 11.6 | 24.4 ± 7.1 | 80.2 ± 10.9 | – |
| C#CC[Se]C(=O)c1cccs1 [Compound 9b, Se-prop-2-ynyl thiophene-2-carboselenoate] | 70.2 ± 6.9 | 22.3 ± 2.7 | 58.9 ± 7.8 | 20.6 ± 2.7 | 76 ± 13.5 | – |
| C#CC[Se]C(=O)c1ccccc1Cl [Compound 3b, Se-prop-2-ynyl 2-chlorobenzoselenoate] | 93.2 ± 10.2 | 41.6 ± 3.5 | > 100 | 23.7 ± 9 | 81.8 ± 15.2 | – |
| C=CC[Se]C(=O)c1cccs1 [Compound 9a, Se-allyl thiophene-2-carboselenoate] | 89.4 ± 4.9 | 48.6 ± 6.2 | 64.8 ± 8.5 | 25.9 ± 2.4 | 99.5 ± 8.3 | – |
| Se-prop-2-ynyl 3a,7a-dihydrobenzo[d][1,3]dioxole-5-carboselenoate [Compound 4b] | – | – | – | – | – | Cell growth % at 10 µM, MDA-MB-231 ([1]; 48 h): 62.6 ± 7.4%; Cell growth % at 10 µM, DU-145 ([2]; 48 h): 19.7 ± 2.2%; Cell growth % at 10 µM, HTB-54 ([3]; 10 µM, 48 h, MTT): 57.8 ± 8.1%; % AChE Inhibition [5]: 16.5 ± 10.6%; Cell growth % at 10 µM, HT-29 ([6]; 10 µM, 48 h): 50.6 ± 7.8% |
| C#CC[Se]C(=O)c1ccccc1Nc1cccc(C(F)(F)F)c1 [Compound 19b] | 92.8 ± 10.2 | 25.2 ± 2.2 | 43.6 ± 18.4 | 21.1 ± 2.6 | 61.6 ± 9.8 | – |
